Assay results from patent publication US20240252668A1, “ANTIBODY DRUG CONJUGATES AND METHODS FOR MAKING THEREOF” (Novartis AG, priority 2021, published 2024).
Like-named read-outs stand apart in the source and are kept apart here. Positions of bridges follow the written chain, without caps; N, C: chain ends. Non-standard residues stand in square brackets, D forms with d. Residues, ends and D or L forms follow the SMILES beside them. Leu(3R-O(AcLeu(3R-OH))) = CC(=O)N[C@H](C(=O)O[C@H](C(C)C)[C@H](N)C(=O)O)[C@H](O)C(C)C; NMeT = CN[C@H](C(=O)O)[C@@H](C)O; dPhLac = O=C(O)[C@H](O)Cc1ccccc1; NMeA = CN[C@@H](C)C(=O)O; NMeDha = C=C(NC)C(=O)O

Legend:
MDCK-LE monolayers = assay: Cell-based transwell assay with MDCK-low efflux monolayers (passive permeability); format: in vitro ADME; settings: MDCK-LE monolayers
Procedure: Cell-based transwell assays with MDCK-low efflux monolayers: Compounds (A1) and 2-15 were tested in MDCK cell sub-clones with low effluxt ransporter activity (MDCK-LE) in order to determine their passive permeability. The incubations were performed at a contract research organization as described previously.

[1] = test system: MP41 uveal melanoma cell line (heterozygous GNA11 Q209L); assay: Cell proliferation assay (resazurin cell viability), MP41 cell line; format: cell-based
Excerpt: (§1) Cell Proliferation Assays with Chromodepsins (compounds (A1) and 2-15): Cell line descriptions: 92.1—uveal melanoma cell line, derived from primary tumor, harboring heterozygous GNAQ Q209L mutation. Purchased from Sigma Aldrich. MP41 (CRL-3297) -uveal melanoma cell line, derived from primary tumor, harboring heterozygous GNA11 Q209L mutation. Purchased from ATCC. A375—skin melanoma cell line, harboring homozygous BRAF V600E mutation. Origin: Cancer Cell Line Encyclopedia (CCLE). SK-MEL-30—skin melanoma cell line, harboring heterozygous NRAS Q61K mutation. Origin: CCLE.
(§2) Cells were cultured in 96-well plates in a total volume of 100 μL at 37° C., 5% CO2 and 95% relative humidity. All cell lines were cultured in RPMI Medium (RPMI 1640 w/o L-glutamine, Bioconcept ref. 1-41F01-I) except A375, DMEM medium (DMEM high glucose (4.5 g/L), Bioconcept, ref. 1-26F01-I), and supplemented with 10% FCS (Bioconcept, ref. 2-01F30-I). Two to three thousand cells were seeded in 96-well plates per well the night before they were treated with compounds (concentration range: from 260 nM to 0.036 nM with ⅓ dilution steps; for 7 the concentration range was increased from 10000 nM to 1.52 nM with ⅓ dilution steps). Cell viability was measured by addition of 10 ul of resazurin per well after 96 hours of treatment. Results were analyzed and plotted using GraphPad Prism 9.0.1.

[2] = test system: A375 skin melanoma cell line (homozygous BRAF V600E); assay: Cell proliferation assay (resazurin cell viability), A375 cell line; format: cell-based
Excerpt: as §1, §2

[3] = EPSA determination by supercritical fluid chromatography; format: physicochemical; settings: modified EPSA method, SFC
Procedure: […] by supercritical fluid chromatography: Compounds (A1) and 2-15 were tested by supercritical fluid chromatography (SFC) to determine their ESAPSA values. Samples were analyzed using a Chirex 3014 column ([…], 3×100 mm column, 100 Å pore size; Phenomenex. The starting conditions were 5% methanol containing 20 mM ammonium formate and 95% scCO2. The gradient was increased linearly to 60% methanol containing 20 mM ammonium formate in 4.5 min.

[4] = test system: SK-MEL-30 skin melanoma cell line (heterozygous NRAS Q61K); assay: Cell proliferation assay (resazurin cell viability), SK-MEL-30 cell line; format: cell-based
Excerpt: as §1, §2

[5] = test system: 92.1 uveal melanoma cell line (heterozygous GNAQ Q209L); assay: Cell proliferation assay (resazurin cell viability), 92.1 cell line; format: cell-based
Excerpt: as §1, §2

**Q.** For `C=C1C(=O)N[C@@H](C)C(=O)N(C)[C@@H](C)C(=O)N[C@@H]([C@H](OC(=O)[C@@H](NC(C)=O)[C@H](O)C(C)C)C(C)C)C(=O)N(C)[C@@H]([C@@H](C)OC)C(=O)O[C@H](C)[C@H](NC(C)=O)C(=O)O[C@H](Cc2ccccc2)C(=O)N1C` [Compound 13] (Ac-T[dPhLac][NMeDha]A[NMeA][Leu(3R-O(AcLeu(3R-OH)))][NMeT](Me); ester 1-C), which “% Fraction absorbed” value (MDCK-LE monolayers) is on record?
**A.** Its value is 46.5%.

**Q.** What about the “% Recovery” value (MDCK-LE monolayers) of the same compound?
**A.** Its value is 85%.

**Q.** What about the “Papp A − B” value (MDCK-LE monolayers) of the same compound?
**A.** Its value is 2.69 ×10⁻⁶ cm/s.

**Q.** And the GI50 ([1]; MP41 (GNA11 Q209L), 96 hours of treatment, read-out: GI50 by cell line, MP41)?
**A.** Its GI50 is 6 nM.

**Q.** What about the GI50 ([1]; MP41 cell line, average of Rep. 1 and 2, read-out: GI50 MP41 Average) of the same compound?
**A.** The GI50 was 6 nM.

**Q.** And the GI50 ([1]; MP41 cell line, replicate 1, read-out: GI50 MP41 Rep. 1)?
**A.** The GI50 was 3.6 nM.

**Q.** And the GI50 ([1]; MP41 cell line, replicate 2, read-out: GI50 MP41 Rep. 2)?
**A.** Its GI50 is 8.31 nM.

**Q.** What about the GI50 ([2]; A375 (GNAQ/11 wild type), 96 hours of treatment, read-out: GI50 by cell line, A375) of the same compound?
**A.** Its GI50 is > 260 nM.

**Q.** What about the GI50 ([2]; A375 cell line, average of Rep. 1 and 2, read-out: GI50 A375 Average) of the same compound?
**A.** The GI50 was > 260 nM.

**Q.** What about the GI50 ([2]; A375 cell line, replicate 1, read-out: GI50 A375 Rep. 1) of the same compound?
**A.** The GI50 was > 260 nM.

**Q.** What about the GI50 ([2]; A375 cell line, replicate 2, read-out: GI50 A375 Rep. 2) of the same compound?
**A.** Its GI50 is > 260 nM.

**Q.** What about the EPSA [3] of the same compound?
**A.** Its EPSA is 95 A^2.

**Q.** What about the GI50 ([4]; SK-MEL-30 (GNAQ/11 wild type), 96 hours of treatment, read-out: GI50 by cell line, SK-MEL-30) of the same compound?
**A.** Its GI50 is > 260 nM.

**Q.** What about the GI50 ([4]; SK-MEL-30 cell line, average of Rep. 1 and 2, read-out: GI50 SK-MEL-30 Average) of the same compound?
**A.** The GI50 was > 260 nM.

**Q.** And the GI50 ([4]; SK-MEL-30 cell line, replicate 1, read-out: GI50 SK-MEL-30 Rep. 1)?
**A.** Its GI50 is > 260 nM.

**Q.** What about the GI50 ([4]; SK-MEL-30 cell line, replicate 2, read-out: GI50 SK-MEL-30 Rep. 2) of the same compound?
**A.** The GI50 was > 260 nM.

**Q.** What about the GI50 ([5]; 92.1 (GNAQ Q209L), 96 hours of treatment, read-out: GI50 by cell line, 92.1) of the same compound?
**A.** Its GI50 is 15.7 nM.

**Q.** What about the GI50 ([5]; 92.1 cell line, average of Rep. 1 and 2, read-out: GI50 92.1 Average) of the same compound?
**A.** Its GI50 is 15.7 nM.

**Q.** And the GI50 ([5]; 92.1 cell line, replicate 1, read-out: GI50 92.1 Rep. 1)?
**A.** Its GI50 is 10.1 nM.

**Q.** What about the GI50 ([5]; 92.1 cell line, replicate 2, read-out: GI50 92.1 Rep. 2) of the same compound?
**A.** Its GI50 is 21.4 nM.
